The values below come from patent publication US9365522B2, “Pyrazole amide derivative” (AMGEN INC., priority 2015, dated 2016).

For the assay, the target named is T1, human RORγ-LBD (Homo sapiens, UniProt P51449).
T1 construct: made in house; host or cells: E. coli (BL-21)
T1 sequence (P51449 262-518): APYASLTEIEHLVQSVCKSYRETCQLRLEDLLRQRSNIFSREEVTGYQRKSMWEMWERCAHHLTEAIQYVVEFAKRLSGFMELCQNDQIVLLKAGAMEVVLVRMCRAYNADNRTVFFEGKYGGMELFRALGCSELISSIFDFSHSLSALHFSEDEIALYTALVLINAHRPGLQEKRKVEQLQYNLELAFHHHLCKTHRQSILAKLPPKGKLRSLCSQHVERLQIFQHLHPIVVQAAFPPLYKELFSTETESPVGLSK
Put plainly: ROR gamma coactivator peptide recruitment Alphascreen assay (RORγ-LBD binding to GRIP1 coactivator peptide). Conditions: 5 nM human RORγ-LBD, 30 nM 7-β-hydroxycholesterol, 50 nM biotinylated GRIP1 coactivator peptide, overnight incubation at room temperature; read-out: result (pIC50, RORγ coactivator peptide recruitment Alphascreen assay) (converted). Format: biochemical. From the text: Alphascreen™ is a bead-based amplified homogenous luminescent proximity assay that can be used for measuring the effect of compounds on protein-protein interactions. When biological interactions bring donor and acceptor beads into close proximity, reactive oxygen, generated upon laser excitation of the donor beads, initiates a luminescence/fluorescence cascade in the acceptor beads that leads to a highly amplified signal that can be measured as light in the 520-620 nm range. When the acceptor and donor beads are not in proximity, the reactive oxygen decays and only a very low background signal is generated.
An in vitro assay to assess inhibition of RORγ binding to the coactivator GRIP1 was established using Alphascreen™ technology. The interaction between nuclear receptors (NR) and coactivator proteins is a key step in signal transduction from the receptor to the transcriptional machinery and can be measured in vitro using only the ligand binding domain of the nuclear receptor and a peptide containing a coactivator protein LXXLL nuclear receptor binding motif
For the RORγ construct used in the coactivator recruitment assay, nucleotides corresponding to the ligand binding domain (LBD) of wild type human RORγ (amino acids 262-518 of Genbank Accession No. NM_005060.3) were cloned into the pET24 expression vector (Novagen), downstream of in-frame N-terminal 6×His and Flag tag sequences. Recombinant 6×His:Flag-tagged human RORγ-LBD protein was expressed in E. coli (BL-21) and purified by affinity chromatography on a nickel Sepharose column, followed by anion exchange chromatography.
A 4× assay mixture of 6×His:Flag-tagged human RORγ-LBD with the agonist ligand 7-β-hydroxycholesterol was prepared in assay buffer (50 mM HEPES pH 7.4, BSA 0.05%, 150 mM NaCl, 5 mM MgCl2, 1 mM DTT, 0.01% Tween-20). For control wells a 4× mixture of 6×His:Flag-tagged human ROR gamma LBD alone was also prepared.
A 4× stock of biotinylated coactivator peptide containing the LXXLL motif from GRIP1 (Biotin-[…]) was prepared in assay buffer.
A 4×detection mixture of nickel chelate Alphascreen™ acceptor beads (PerkinElmer) and streptavidin Alphascreen™ donor beads (PerkinElmer) was prepared in assay buffer.
Compounds to be tested were arranged in a pre-dose 384-well mother plate serially diluted 1 in 2 over 22 columns, in 100% DMSO, at 40× the final test concentration, from a high concentration of 4 mM. DMSO with no compound was placed in control columns. The compounds were robotically dispensed directly into assay plates containing assay buffer to a 4× final test concentration.
Following compound addition, the 6×His:Flag-tagged human RORγ-LBD plus 7-β-hydroxycholesterol assay mixture, biotinylated coactivator peptide and detection mixture were added. Final assay conditions were 5 nM 6×His:Flag-tagged human RORγ-LBD, 30 nM 7-β-hydroxycholesterol, 50 nM biotinylated coactivator peptide, 2.5 ug/ml nickel acceptor beads and 10 ug/ml streptavidin donor beads. The final concentration of DMSO in the assay was 2.5%.
After overnight incubation at room temperature plates were read on and Envision™ plate reader (PerkinElmer).
Data was plotted and pIC50 values were calculated using the Genedata Screener™ data analysis suite (Genedata).
A general note: Alpha assays give light when donor and acceptor beads are brought close together.
As for `O=C(c1cnn([C@H]2CC[C@H](C(=O)O)CC2)c1C(F)(F)F)N(CCc1c(Cl)cccc1Cl)Cc1ccc(Cl)cc1` [Example 501, trans-4-(4-((4-chlorobenzyl)(2-(2,6-dichlorophenyl)ethyl)carbamoyl)-5-(trifluoromethyl)-1H-pyrazol-1-yl)cyclohexanecarboxylic acid], the IC50 was 3.8 nM. Take `O=C(c1cnn([C@H]2CC[C@H](C(=O)O)CC2)c1C(F)(F)F)N(CCc1ccccc1)Cc1ccc(Cl)cc1` [Example 502, trans-4-(4-((4-chlorobenzyl)(2-phenylethyl)carbamoyl)-5-(trifluoromethyl)-1H-pyrazol-1-yl)cyclohexanecarboxylic acid]: the IC50 was 275 nM. To `O=C(c1cnn([C@H]2CC[C@H](C(=O)O)CC2)c1C(F)(F)F)N(CCc1ccc2cc[nH]c2c1)Cc1ccc(Cl)cc1` [Example 503, trans-4-(4-((4-chlorobenzyl)(2-(1H-indol-6-yl)ethyl)carbamoyl)-5-(trifluoromethyl)-1H-pyrazol-1-yl)cyclohexanecarboxylic acid] belongs 355 nM; to `O=C(c1cnn([C@H]2CC[C@H](C(=O)O)CC2)c1C(F)(F)F)N(CCc1ccc(Cl)cc1Cl)Cc1ccc(Cl)cc1` [Example 504, trans-4-(4-((4-chlorobenzyl)(2-(2,4-dichlorophenyl)ethyl)carbamoyl)-5-(trifluoromethyl)-1H-pyrazol-1-yl)cyclohexanecarboxylic acid], 6.92 nM; to `Cc1ccc(CCN(Cc2ccc(Cl)cc2)C(=O)c2cnn([C@H]3CC[C@H](C(=O)O)CC3)c2C(F)(F)F)c(C)c1` [Example 505, trans-4-(4-((4-chlorobenzyl)(2-(2,4-dimethylphenyl)ethyl)carbamoyl)-5-(trifluoromethyl)-1H-pyrazol-1-yl)cyclohexanecarboxylic acid], 5.89 nM. Regarding `O=C(c1cnn([C@H]2CC[C@H](C(=O)O)CC2)c1C(F)(F)F)N(CCc1cccc2[nH]ccc12)Cc1ccc(Cl)cc1` [Example 506, trans-4-(4-((4-chlorobenzyl)(2-(1H-indol-4-yl)ethyl)carbamoyl)-5-(trifluoromethyl)-1H-pyrazol-1-yl)cyclohexanecarboxylic acid], the IC50 was 69.2 nM. The figure for `O=C(c1cnn([C@H]2CC[C@H](C(=O)O)CC2)c1C(F)(F)F)N(CCc1c[nH]c2ccccc12)Cc1ccc(Cl)cc1` [Example 507, trans-4-(4-((4-chlorobenzyl)(2-(1H-indol-3-yl)ethyl)carbamoyl)-5-(trifluoromethyl)-1H-pyrazol-1-yl)cyclohexanecarboxylic acid] is 32.4 nM; for `O=C(c1cnn([C@H]2CC[C@H](C(=O)O)CC2)c1C(F)(F)F)N(CCc1cccc2cc[nH]c12)Cc1ccc(Cl)cc1` [Example 508, trans-4-(4-((4-chlorobenzyl)(2-(1H-indol-7-yl)ethyl)carbamoyl)-5-(trifluoromethyl)-1H-pyrazol-1-yl)cyclohexanecarboxylic acid] it is 759 nM; for `Cc1ccccc1CCN(Cc1ccc(Cl)cc1)C(=O)c1cnn([C@H]2CC[C@H](C(=O)O)CC2)c1C(F)(F)F` [Example 509, trans-4-(4-((4-chlorobenzyl)(2-(2-methylphenyl)ethyl)carbamoyl)-5-(trifluoromethyl)-1H-pyrazol-1-yl)cyclohexanecarboxylic acid] it is 11.5 nM. The figure for `Cc1cc(Cl)c(CCN(CC2CCCCC2)C(=O)c2cnn([C@H]3CC[C@H](C(=O)O)CC3)c2C(F)(F)F)c(Cl)c1` [Example 510, trans-4-(4-((cyclohexylmethyl)(2-(2,6-dichloro-4-methylphenyl)ethyl)carbamoyl)-5-(trifluoromethyl)-1H-pyrazol-1-yl)cyclohexanecarboxylic acid] is 1.78 nM; for `Cc1[nH]c2ccccc2c1CCN(Cc1ccc(Cl)cc1)C(=O)c1cnn([C@H]2CC[C@H](C(=O)O)CC2)c1C(F)(F)F` [Example 513, trans-4-(4-((4-chlorobenzyl)(2-(2-methyl-1H-indol-3-yl)ethyl)carbamoyl)-5-(trifluoromethyl)-1H-pyrazol-1-yl)cyclohexanecarboxylic acid] it is 33.1 nM; for `Cc1cc(Cl)c(CCN(CC2CCCCC2)C(=O)c2cnn([C@H]3CC[C@](C)(C(=O)O)CC3)c2C(F)(F)F)c(Cl)c1` [Example 514, trans-4-(4-((cyclohexylmethyl)(2-(2,6-dichloro-4-methylphenyl)ethyl)carbamoyl)-5-(trifluoromethyl)-1H-pyrazol-1-yl)-1-methylcyclohexanecarboxylic acid] it is 1.91 nM. To `Cc1cc(Cl)c(CCN(CC(C)(C)C)C(=O)c2cnn([C@H]3CC[C@](C)(C(=O)O)CC3)c2C(F)(F)F)c(Cl)c1` [Example 515, trans-4-(4-((2-(2,6-dichloro-4-methylphenyl)ethyl)(2,2-dimethylpropyl)carbamoyl)-5-(trifluoromethyl)-1H-pyrazol-1-yl)-1-methylcyclohexanecarboxylic acid] belongs 4.68 nM; to `Cc1cc(Cl)c(C(=O)CN(CC(C)(C)C)C(=O)c2cnn([C@H]3CC[C@H](C(=O)O)CC3)c2C(F)(F)F)c(Cl)c1` [Example 517, trans-4-(4-((2-(2,6-dichloro-4-methylphenyl)-2-oxoethyl)(2,2-dimethylpropyl)carbamoyl)-5-(trifluoromethyl)-1H-pyrazol-1-yl)cyclohexanecarboxylic acid], 25.1 nM; to `Cc1cc(Cl)c(C(=O)CN(CC2CCC3(CC2)CC3)C(=O)c2cnn([C@H]3CC[C@H](C(=O)O)CC3)c2C(F)(F)F)c(Cl)c1` [Example 518, trans-4-(4-((2-(2,6-dichloro-4-methylphenyl)-2-oxoethyl)(spiro[2.5]oct-6-ylmethyl)carbamoyl)-5-(trifluoromethyl)-1H-pyrazol-1-yl)cyclohexanecarboxylic acid], 2.63 nM.

In the case of `Cc1cc(Cl)c(C(=O)CN(CC2(C)CCCCC2)C(=O)c2cnn([C@H]3CC[C@H](C(=O)O)CC3)c2C(F)(F)F)c(Cl)c1` [Example 519, trans-4-(4-((2-(2,6-dichloro-4-methylphenyl)-2-oxoethyl)((1-methylcyclohexyl)methyl)carbamoyl)-5-(trifluoromethyl)-1H-pyrazol-1-yl)cyclohexanecarboxylic acid], the IC50 was 5.13 nM. For the compound `Cc1cc(Cl)c(C(=O)CN(CC2CC(C)(C)C2)C(=O)c2cnn([C@H]3CC[C@H](C(=O)O)CC3)c2C(F)(F)F)c(Cl)c1` [Example 520, trans-4-(4-((2-(2,6-dichloro-4-methylphenyl)-2-oxoethyl)((3,3-dimethylcyclobutyl)methyl)carbamoyl)-5-(trifluoromethyl)-1H-pyrazol-1-yl)cyclohexanecarboxylic acid], the IC50 is 2.51 nM. The figure for `CC1(C)CC(CN(CC(=O)c2c(Cl)cccc2Cl)C(=O)c2cnn([C@H]3CC[C@H](C(=O)O)CC3)c2C(F)(F)F)C1` [Example 521, trans-4-(4-((2-(2,6-dichlorophenyl)-2-oxoethyl)((3,3-dimethylcyclobutyl)methyl)carbamoyl) 5-(trifluoromethyl)-1H-pyrazol-1-yl)cyclohexanecarboxylic acid] is 1.86 nM; for `Cc1cc(Cl)c(C(=O)CN(Cc2cc(F)c(C(F)(F)F)c(F)c2)C(=O)c2cnn([C@H]3CC[C@H](C(=O)O)CC3)c2C(F)(F)F)c(Cl)c1` [Example 522, trans-4-(4-((2-(2,6-dichloro-4-methylphenyl)-2-oxoethyl)(3,5-difluoro-4-(trifluoromethyl)benzyl)carbamoyl)-5-(trifluoromethyl)-1H-pyrazol-1-yl)cyclohexanecarboxylic acid] it is 2.09 nM.
